# Values quoted from earlier work in patent US10478399B2, “Modified release tablet composition comprising mirabegron” (SYNTHON B.V., priority 2017, dated 2019).
# Columns and labels:
# [1] = neutral to acidic pH
# [2] = presence of food in the GI tract
smiles,measurement,setting,value
"Nc1nc(CC(=O)Nc2ccc(CCNC[C@H](O)c3ccccc3)cc2)cs1 [Mirabegron, (R)-2-(2-aminothiazol-4-yl)-4′-[2-[(2-hydroxy-2-phenylethyl)amino]ethyl]acetic acid anilide]",permeability (BCS),,low permeability
same,solubility (BCS),,high solubility
same,solubility in water,[1],soluble in water between neutral to acidic pH
same,effect of food on bioavailability,[2],affected by the presence of food
